What was measured:
[1] = biological target: T1, Mitogen-activated protein kinase kinase kinase 5 (Homo sapiens, UniProt Q99683); test: Inhibition of ASK1 (unknown origin) assessed as reduction in JNK phosphorylation by cell based assay
T1 sequence (Q99683 whole entry): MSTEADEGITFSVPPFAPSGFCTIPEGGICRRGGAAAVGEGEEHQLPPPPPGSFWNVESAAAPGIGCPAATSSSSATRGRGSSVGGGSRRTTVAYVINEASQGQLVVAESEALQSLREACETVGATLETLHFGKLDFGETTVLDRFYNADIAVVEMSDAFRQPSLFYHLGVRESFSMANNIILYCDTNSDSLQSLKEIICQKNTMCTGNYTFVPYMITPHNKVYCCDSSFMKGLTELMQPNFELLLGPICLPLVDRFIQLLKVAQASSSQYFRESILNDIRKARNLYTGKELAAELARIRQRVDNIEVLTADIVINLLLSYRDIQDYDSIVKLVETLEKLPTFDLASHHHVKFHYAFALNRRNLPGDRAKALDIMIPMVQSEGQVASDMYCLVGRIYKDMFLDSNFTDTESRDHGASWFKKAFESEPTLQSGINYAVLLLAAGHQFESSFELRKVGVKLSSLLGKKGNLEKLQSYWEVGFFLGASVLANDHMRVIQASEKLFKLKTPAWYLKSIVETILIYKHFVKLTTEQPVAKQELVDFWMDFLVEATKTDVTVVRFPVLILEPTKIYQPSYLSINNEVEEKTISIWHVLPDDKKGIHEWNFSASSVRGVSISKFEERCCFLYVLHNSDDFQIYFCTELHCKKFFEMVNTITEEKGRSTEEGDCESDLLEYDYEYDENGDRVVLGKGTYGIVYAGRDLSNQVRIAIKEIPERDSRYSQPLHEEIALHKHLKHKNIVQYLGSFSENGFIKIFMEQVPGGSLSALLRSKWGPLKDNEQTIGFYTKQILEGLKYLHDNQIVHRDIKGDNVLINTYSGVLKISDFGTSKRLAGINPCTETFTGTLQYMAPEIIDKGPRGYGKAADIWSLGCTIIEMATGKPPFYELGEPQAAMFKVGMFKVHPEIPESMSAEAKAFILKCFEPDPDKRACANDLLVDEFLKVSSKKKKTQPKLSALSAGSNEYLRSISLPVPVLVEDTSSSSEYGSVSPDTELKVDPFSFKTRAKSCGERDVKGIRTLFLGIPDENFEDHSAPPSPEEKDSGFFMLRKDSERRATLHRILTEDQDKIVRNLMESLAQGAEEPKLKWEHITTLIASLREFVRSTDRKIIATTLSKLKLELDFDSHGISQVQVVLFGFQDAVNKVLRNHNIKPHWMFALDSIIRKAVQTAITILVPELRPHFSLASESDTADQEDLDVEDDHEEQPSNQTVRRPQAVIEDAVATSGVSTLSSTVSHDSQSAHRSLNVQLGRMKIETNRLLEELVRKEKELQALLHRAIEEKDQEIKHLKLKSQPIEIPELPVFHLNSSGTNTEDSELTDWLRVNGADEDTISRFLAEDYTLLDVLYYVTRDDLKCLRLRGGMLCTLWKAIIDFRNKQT

[2] = biological target: 5'-AMP-activated protein kinase catalytic subunit alpha-1 (Homo sapiens, UniProt Q13131); test: Inhibition of PRKAA1 (unknown origin)
[3] = Intrinsic clearance in human liver microsomes; type: ADME, microsome; conditions: read-out: CLH
[4] = biological target: T2, Ephrin type-A receptor 3 (Homo sapiens, UniProt P29320); test: Inhibition of recombinant human His-tagged EPHA3 cytoplasmic domain (569 to 976 residues) expressed in baculovirus expression system
T2 sequence (P29320 whole entry): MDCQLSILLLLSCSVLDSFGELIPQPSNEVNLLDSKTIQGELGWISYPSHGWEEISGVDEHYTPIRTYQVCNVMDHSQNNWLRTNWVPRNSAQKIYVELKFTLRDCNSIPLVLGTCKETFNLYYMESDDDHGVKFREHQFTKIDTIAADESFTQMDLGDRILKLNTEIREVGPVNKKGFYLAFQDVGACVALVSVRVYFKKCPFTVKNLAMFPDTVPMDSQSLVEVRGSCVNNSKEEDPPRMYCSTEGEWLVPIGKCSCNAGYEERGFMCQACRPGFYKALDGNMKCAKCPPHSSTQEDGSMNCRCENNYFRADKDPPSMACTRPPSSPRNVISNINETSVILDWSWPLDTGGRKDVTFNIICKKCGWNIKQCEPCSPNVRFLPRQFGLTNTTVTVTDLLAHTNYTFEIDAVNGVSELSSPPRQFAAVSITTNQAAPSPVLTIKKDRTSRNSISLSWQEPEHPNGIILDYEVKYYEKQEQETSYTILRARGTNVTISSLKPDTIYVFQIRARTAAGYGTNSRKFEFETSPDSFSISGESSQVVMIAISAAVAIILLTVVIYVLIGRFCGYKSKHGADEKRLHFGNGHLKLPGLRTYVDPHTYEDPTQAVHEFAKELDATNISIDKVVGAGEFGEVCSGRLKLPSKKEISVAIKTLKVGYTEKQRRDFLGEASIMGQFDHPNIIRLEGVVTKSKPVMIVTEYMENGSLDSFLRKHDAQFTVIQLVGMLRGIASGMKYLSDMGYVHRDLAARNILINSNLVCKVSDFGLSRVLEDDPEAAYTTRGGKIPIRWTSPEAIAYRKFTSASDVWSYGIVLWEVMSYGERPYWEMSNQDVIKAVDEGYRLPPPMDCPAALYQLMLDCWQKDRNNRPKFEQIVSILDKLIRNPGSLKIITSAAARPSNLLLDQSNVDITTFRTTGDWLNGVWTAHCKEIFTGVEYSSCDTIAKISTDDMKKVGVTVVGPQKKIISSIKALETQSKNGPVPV

[5] = biological target: T1, Mitogen-activated protein kinase kinase kinase 5; test: Inhibition of ASK1 (unknown origin) using biotin-MBP as substrate after 20 mins by TR-FRET assay
[6] = biological target: CYP2C9 (Homo sapiens, UniProt P11712); test: Inhibition of CYP2C9 (unknown origin) at 10 uM relative to control; type: ADME
[7] = biological target: Epidermal growth factor receptor (Homo sapiens, UniProt P00533); test: Inhibition of recombinant human GST-tagged EGFR cytoplasmic domain (668 to 1210 residues) expressed in baculovirus expression system
Chain of Epidermal growth factor receptor (P00533 whole entry, the tested form may be a part): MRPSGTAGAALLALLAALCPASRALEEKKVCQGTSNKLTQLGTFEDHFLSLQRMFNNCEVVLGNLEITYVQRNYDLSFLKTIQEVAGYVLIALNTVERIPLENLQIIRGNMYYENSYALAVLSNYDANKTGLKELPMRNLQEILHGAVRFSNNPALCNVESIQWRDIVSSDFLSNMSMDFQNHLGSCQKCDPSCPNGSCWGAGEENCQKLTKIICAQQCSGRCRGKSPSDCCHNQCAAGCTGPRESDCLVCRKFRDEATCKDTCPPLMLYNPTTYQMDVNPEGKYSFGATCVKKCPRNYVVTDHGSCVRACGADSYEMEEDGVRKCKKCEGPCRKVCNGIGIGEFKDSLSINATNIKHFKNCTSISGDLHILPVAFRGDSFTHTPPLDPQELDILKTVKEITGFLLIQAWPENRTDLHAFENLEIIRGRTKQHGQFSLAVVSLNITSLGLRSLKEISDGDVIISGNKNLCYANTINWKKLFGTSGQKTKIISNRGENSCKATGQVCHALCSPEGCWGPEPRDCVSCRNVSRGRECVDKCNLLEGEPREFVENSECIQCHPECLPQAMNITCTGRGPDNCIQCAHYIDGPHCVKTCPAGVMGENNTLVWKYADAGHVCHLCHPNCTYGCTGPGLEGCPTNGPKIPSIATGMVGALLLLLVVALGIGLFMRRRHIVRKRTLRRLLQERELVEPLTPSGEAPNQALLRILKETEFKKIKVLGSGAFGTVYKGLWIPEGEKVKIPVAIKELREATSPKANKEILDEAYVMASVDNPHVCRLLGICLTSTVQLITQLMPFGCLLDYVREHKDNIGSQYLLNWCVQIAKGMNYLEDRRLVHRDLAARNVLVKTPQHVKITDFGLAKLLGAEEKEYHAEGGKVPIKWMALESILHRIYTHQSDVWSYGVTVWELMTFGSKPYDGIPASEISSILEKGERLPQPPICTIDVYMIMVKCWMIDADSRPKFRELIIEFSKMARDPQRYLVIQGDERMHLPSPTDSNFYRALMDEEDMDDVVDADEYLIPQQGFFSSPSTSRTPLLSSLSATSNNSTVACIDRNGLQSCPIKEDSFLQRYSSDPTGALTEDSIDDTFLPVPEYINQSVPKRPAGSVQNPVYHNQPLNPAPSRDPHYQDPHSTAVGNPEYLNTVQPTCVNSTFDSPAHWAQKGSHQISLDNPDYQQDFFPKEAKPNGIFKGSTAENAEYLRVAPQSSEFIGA

Chain of 5'-AMP-activated protein kinase catalytic subunit alpha-1 (Q13131 whole entry): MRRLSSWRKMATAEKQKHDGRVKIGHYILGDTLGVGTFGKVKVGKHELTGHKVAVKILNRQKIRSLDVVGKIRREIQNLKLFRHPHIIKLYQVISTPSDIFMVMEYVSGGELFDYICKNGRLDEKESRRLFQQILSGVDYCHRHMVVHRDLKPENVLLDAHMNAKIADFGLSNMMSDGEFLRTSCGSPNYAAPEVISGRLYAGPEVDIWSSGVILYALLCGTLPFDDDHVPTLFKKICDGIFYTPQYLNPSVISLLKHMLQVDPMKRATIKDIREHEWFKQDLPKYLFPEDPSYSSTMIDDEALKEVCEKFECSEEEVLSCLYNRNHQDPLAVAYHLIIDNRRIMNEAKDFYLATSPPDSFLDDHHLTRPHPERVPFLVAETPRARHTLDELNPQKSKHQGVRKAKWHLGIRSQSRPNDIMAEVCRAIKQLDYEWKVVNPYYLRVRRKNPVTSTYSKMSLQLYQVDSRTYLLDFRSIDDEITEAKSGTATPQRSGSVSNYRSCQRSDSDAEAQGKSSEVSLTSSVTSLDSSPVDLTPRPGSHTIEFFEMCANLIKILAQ
Chain of CYP2C9 (P11712 whole entry, the tested form may be a part): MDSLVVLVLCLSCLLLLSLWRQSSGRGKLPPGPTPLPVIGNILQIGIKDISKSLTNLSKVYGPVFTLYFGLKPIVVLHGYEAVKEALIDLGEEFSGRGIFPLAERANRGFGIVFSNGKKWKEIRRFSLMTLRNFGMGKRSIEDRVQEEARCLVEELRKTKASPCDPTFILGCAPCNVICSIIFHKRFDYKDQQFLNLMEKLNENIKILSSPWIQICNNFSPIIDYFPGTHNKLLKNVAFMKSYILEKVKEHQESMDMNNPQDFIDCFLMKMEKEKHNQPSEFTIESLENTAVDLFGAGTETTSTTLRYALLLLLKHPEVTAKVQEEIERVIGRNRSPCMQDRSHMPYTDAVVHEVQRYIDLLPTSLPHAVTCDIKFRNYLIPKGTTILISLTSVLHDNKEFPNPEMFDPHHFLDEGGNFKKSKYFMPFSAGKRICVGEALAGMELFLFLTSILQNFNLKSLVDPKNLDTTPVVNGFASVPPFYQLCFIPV

EC50 [1]: 60 nM | IC50 [2]: 794 nM | CLint scaled [3]: 8.8 mL/min/kg | IC50 [4]: > 20000 nM | IC50 [5]: 60 nM | inhibition at 10 µM [6]: 36% | IC50 [7]: > 20000 nM
SMILES: COCCn1cc(NC(=O)c2csc(-c3nncn3C(C)C)n2)cn1
